ChEMBL document CHEMBL1156230, “Identification of phenylsulfone-substituted quinoxaline (WYE-672) as a tissue selective liver X-receptor (LXR) agonist” (J Med Chem, 2010)
The source made the active and inactive calls. The rule behind the calls is not given here.

How the values were obtained:
Mus musculus [1] = assay: Antiatherosclerotic activity against high fat/high cholesterol fed LDLR-deficient mouse assessed as apoe gene regulation at 3 mg/kg administered with diet for 7 days by Experion chip analysis; format: functional, organism-based; design: dose 3 mg/kg
Mus musculus [2] = assay: Antiatherosclerotic activity against high fat/high cholesterol fed LDLR-deficient mouse assessed as lipg gene regulation at 0.6 mg/kg administered with diet for 7 days by Experion chip analysis; format: functional, organism-based; design: dose 0.6 mg/kg
Mus musculus [3] = assay: Antiatherosclerotic activity against high fat/high cholesterol fed LDLR-deficient mouse duodenum assessed as induction of ABCG8 expression at 3 mg/kg administered with diet for 8 weeks; format: functional, organism-based; design: dose 3 mg/kg
Mus musculus [4] = assay: Antiatherosclerotic activity against high fat/high cholesterol fed LDLR-deficient mouse duodenum assessed as induction of ABCA1 expression at 10 mg/kg administered with diet for 8 weeks; format: functional, organism-based; design: dose 10 mg/kg
Mus musculus [5] = assay: Antiatherosclerotic activity against high fat/high cholesterol fed LDLR-deficient mouse assessed as scab1 gene regulation at 0.6 mg/kg administered with diet for 7 days by Experion chip analysis; format: functional, organism-based; design: dose 0.6 mg/kg
Mus musculus [6] = assay: Antiatherosclerotic activity against high fat/high cholesterol fed LDLR-deficient mouse macrophages assessed as induction of ABCG1 expression at 0.6 mg/kg administered with diet for 8 weeks; format: functional, organism-based; design: dose 0.6 mg/kg
Mus musculus [7] = assay: Antiatherosclerotic activity against high fat/high cholesterol fed LDLR-deficient mouse assessed as Irp1 gene regulation at 3 mg/kg administered with diet for 7 days by Experion chip analysis; format: functional, organism-based; design: dose 3 mg/kg
Mus musculus [8] = assay: Antiatherosclerotic activity against high fat/high cholesterol fed LDLR-deficient mouse assessed as scab1 gene regulation at 10 mg/kg administered with diet for 7 days by Experion chip analysis; format: functional, organism-based; design: dose 10 mg/kg
Mus musculus [9] = assay: Antiatherosclerotic activity against high fat/high cholesterol fed LDLR-deficient mouse macrophages assessed as induction of ABCG1 expression at 10 mg/kg administered with diet for 8 weeks; format: functional, organism-based; design: dose 10 mg/kg
Mus musculus [10] = assay: Antiatherosclerotic activity against high fat/high cholesterol fed LDLR-deficient mouse duodenum assessed as induction of ABCA1 expression at 0.6 mg/kg administered with diet for 8 weeks; format: functional, organism-based; design: dose 0.6 mg/kg
Mus musculus [11] = assay: Antiatherosclerotic activity against high fat/high cholesterol fed LDLR-deficient mouse assessed as apoe gene regulation at 0.6 mg/kg administered with diet for 7 days by Experion chip analysis; format: functional, organism-based; design: dose 0.6 mg/kg
Mus musculus [12] = assay: Antiatherosclerotic activity against high fat/high cholesterol fed LDLR-deficient mouse assessed as abcg8 gene regulation at 0.6 mg/kg administered with diet for 7 days by Experion chip analysis; format: functional, organism-based; design: dose 0.6 mg/kg
Mus musculus [13] = assay: Antiatherosclerotic activity against high fat/high cholesterol fed LDLR-deficient mouse assessed as cyp7a1 gene regulation at 3 mg/kg administered with diet for 7 days by Experion chip analysis; format: functional, organism-based; design: dose 3 mg/kg
Mus musculus [14] = assay: Antiatherosclerotic activity against high fat/high cholesterol fed LDLR-deficient mouse assessed as apo5 gene regulation at 3 mg/kg administered with diet for 7 days by Experion chip analysis; format: functional, organism-based; design: dose 3 mg/kg
HepG2 = assay: Agonist activity at LXR in human HepG2 cells assessed as lipid accumulation relative to T0901317
Mus musculus [15] = assay: Antiatherosclerotic activity against high fat/high cholesterol fed LDLR-deficient mouse duodenum assessed as induction of ABCG5 expression at 0.6 mg/kg administered with diet for 8 weeks; format: functional, organism-based; design: dose 0.6 mg/kg
Mus musculus [16] = assay: Antiatherosclerotic activity against high fat/high cholesterol fed LDLR-deficient mouse assessed as abcg1 gene regulation at 3 mg/kg administered with diet for 8 weeks by Experion chip analysis
Mus musculus [17] = assay: Antiatherosclerotic activity against high fat/high cholesterol fed LDLR-deficient mouse assessed as adfp gene regulation at 3 mg/kg administered with diet for 7 days by Experion chip analysis; format: functional, organism-based; design: dose 3 mg/kg
Mus musculus [18] = assay: Antiatherosclerotic activity against high fat/high cholesterol fed LDLR-deficient mouse assessed as pcsk9 gene regulation at 0.6 mg/kg administered with diet for 7 days by Experion chip analysis; format: functional, organism-based; design: dose 0.6 mg/kg
Mus musculus [19] = assay: Antiatherosclerotic activity against high fat/high cholesterol fed LDLR-deficient mouse assessed as apo5 gene regulation at 0.6 mg/kg administered with diet for 7 days by Experion chip analysis; format: functional, organism-based; design: dose 0.6 mg/kg
Mus musculus [20] = assay: Antiatherosclerotic activity against high fat/high cholesterol fed LDLR-deficient mouse assessed as abcg8 gene regulation at 10 mg/kg administered with diet for 7 days by Experion chip analysis; format: functional, organism-based; design: dose 10 mg/kg
Mus musculus [21] = organism: Mus musculus; assay: Antiatherosclerotic activity against high fat/high cholesterol fed LDLR-deficient mouse assessed as reduction in plasma triglyceride level; format: functional, organism-based
Mus musculus [22] = assay: Antiatherosclerotic activity against high fat/high cholesterol fed LDLR-deficient mouse assessed as Fasn gene regulation at 0.6 mg/kg administered with diet for 7 days by Experion chip analysis; format: functional, organism-based; design: dose 0.6 mg/kg
Mus musculus [23] = assay: Antiatherosclerotic activity against high fat/high cholesterol fed LDLR-deficient mouse assessed as cyp7a1 gene regulation at 10 mg/kg administered with diet for 7 days by Experion chip analysis; format: functional, organism-based; design: dose 10 mg/kg
Mus musculus [24] = assay: Antiatherosclerotic activity against high fat/high cholesterol fed LDLR-deficient mouse duodenum assessed as induction of SREBP-1c expression at 0.6 mg/kg administered with diet for 8 weeks; format: functional, organism-based; design: dose 0.6 mg/kg
Mus musculus [25] = assay: Antiatherosclerotic activity against high fat/high cholesterol fed LDLR-deficient mouse assessed as IPl gene regulation at 0.6 mg/kg administered with diet for 7 days by Experion chip analysis; format: functional, organism-based; design: dose 0.6 mg/kg
Mus musculus [26] = assay: Antiatherosclerotic activity against high fat/high cholesterol fed LDLR-deficient mouse assessed as apo5 gene regulation at 10 mg/kg administered with diet for 7 days by Experion chip analysis; format: functional, organism-based; design: dose 10 mg/kg
Mus musculus [27] = assay: Antiatherosclerotic activity against high fat/high cholesterol fed LDLR-deficient mouse assessed as adfp gene regulation at 10 mg/kg administered with diet for 7 days by Experion chip analysis; format: functional, organism-based; design: dose 10 mg/kg
Mus musculus [28] = organism: Mus musculus; assay: Antiatherosclerotic activity against high fat/high cholesterol fed LDLR-deficient mouse assessed as reduction in total plasma cholesterol; format: functional, organism-based
Mus musculus [29] = assay: Antiatherosclerotic activity against high fat/high cholesterol fed LDLR-deficient mouse assessed as IPl gene regulation at 10 mg/kg administered with diet for 7 days by Experion chip analysis; format: functional, organism-based; design: dose 10 mg/kg
Mus musculus [30] = assay: Antiatherosclerotic activity against high fat/high cholesterol fed LDLR-deficient mouse assessed as srebf1 gene regulation at 10 mg/kg administered with diet for 7 days by Experion chip analysis; format: functional, organism-based; design: dose 10 mg/kg
Mus musculus [31] = assay: Antiatherosclerotic activity against high fat/high cholesterol fed LDLR-deficient mouse duodenum assessed as induction of SREBP-1c expression at 3 mg/kg administered with diet for 8 weeks; format: functional, organism-based; design: dose 3 mg/kg
Mus musculus [32] = assay: Antiatherosclerotic activity against high fat/high cholesterol fed LDLR-deficient mouse assessed as Irp1 gene regulation at 0.6 mg/kg administered with diet for 7 days by Experion chip analysis; format: functional, organism-based; design: dose 0.6 mg/kg
Mus musculus [33] = assay: Antiatherosclerotic activity against high fat/high cholesterol fed LDLR-deficient mouse assessed as lipg gene regulation at 3 mg/kg administered with diet for 7 days by Experion chip analysis; format: functional, organism-based; design: dose 3 mg/kg
Mus musculus [34] = assay: Antiatherosclerotic activity against high fat/high cholesterol fed LDLR-deficient mouse duodenum assessed as induction of ABCG5 expression at 3 mg/kg administered with diet for 8 weeks; format: functional, organism-based; design: dose 3 mg/kg
Mus musculus [35] = assay: Antiatherosclerotic activity against high fat/high cholesterol fed LDLR-deficient mouse assessed as cyp7a1 gene regulation at 0.6 mg/kg administered with diet for 7 days by Experion chip analysis; format: functional, organism-based; design: dose 0.6 mg/kg
Mus musculus [36] = assay: Antiatherosclerotic activity against high fat/high cholesterol fed LDLR-deficient mouse assessed as abcg5 gene regulation at 0.6 mg/kg administered with diet for 7 days by Experion chip analysis; format: functional, organism-based; design: dose 0.6 mg/kg
Mus musculus [37] = assay: Antiatherosclerotic activity against high fat/high cholesterol fed LDLR-deficient mouse assessed as lipg gene regulation at 10 mg/kg administered with diet for 7 days by Experion chip analysis; format: functional, organism-based; design: dose 10 mg/kg
Mus musculus [38] = assay: Antiatherosclerotic activity against high fat/high cholesterol fed LDLR-deficient mouse assessed as abcg1 gene regulation at 0.6 mg/kg administered with diet for 7 days by Experion chip analysis; format: functional, organism-based; design: dose 0.6 mg/kg

With `Cc1nc2c(C(F)(F)F)cccc2nc1-c1ccc(-c2cccc(S(C)(=O)=O)c2)cc1` the Activity (Mus musculus [1]) was “Active”, the Activity (Mus musculus [2]) was “Active” and the Activity (Mus musculus [3]) was “Active”. The Activity (Mus musculus [4]) was “Active”, the Activity (Mus musculus [5]) was “Active” and the Activity (Mus musculus [6]) was “Active”. The Activity (Mus musculus [7]) was “Active”, the Activity (Mus musculus [8]) was “Active” and the Activity (Mus musculus [9]) was “Active”. The Activity (Mus musculus [10]) was “Active”, the Activity (Mus musculus [11]) was “Active” and the Activity (Mus musculus [12]) was “Active”. The Activity (Mus musculus [13]) was “Active”, the Activity (Mus musculus [14]) was “Active” and the Efficacy (HepG2) was 7%. The Activity (Mus musculus [15]) was “Active”, the Activity (Mus musculus [16]) was “Active” and the Activity (Mus musculus [17]) was “Active”. The Activity (Mus musculus [18]) was “Active”, the Activity (Mus musculus [19]) was “Active” and the Activity (Mus musculus [20]) was “Active”. For the same compound, the Activity (Mus musculus [21]) was “inactive”, the Activity (Mus musculus [22]) was “Active” and the Activity (Mus musculus [23]) was “Active”. The Activity (Mus musculus [24]) was “inactive”, the Activity (Mus musculus [25]) was “Active” and the Activity (Mus musculus [26]) was “Active”. For the same compound, the Activity (Mus musculus [27]) was “Active”, the Activity (Mus musculus [28]) was “inactive” and the Activity (Mus musculus [29]) was “Active”. The Activity (Mus musculus [30]) was “Active”, the Activity (Mus musculus [31]) was “Active” and the Activity (Mus musculus [32]) was “Active”. The Activity (Mus musculus [33]) was “Active”, the Activity (Mus musculus [34]) was “Active” and the Activity (Mus musculus [35]) was “Active”. The Activity (Mus musculus [36]) was “Active”, the Activity (Mus musculus [37]) was “Active” and the Activity (Mus musculus [38]) was “Active”.

With `O=C(O)Cc1cccc(OCCCN(Cc2cccc(C(F)(F)F)c2Cl)CC(c2ccccc2)c2ccccc2)c1` the Activity (Mus musculus [1]) was “Active”, the Activity (Mus musculus [2]) was “Active” and the Activity (Mus musculus [3]) was “Active”. For the same compound, the Activity (Mus musculus [4]) was “Active”, the Activity (Mus musculus [5]) was “Active” and the Activity (Mus musculus [6]) was “Active”. The Activity (Mus musculus [7]) was “Active”, the Activity (Mus musculus [8]) was “Active” and the Activity (Mus musculus [9]) was “Active”. For the same compound, the Activity (Mus musculus [10]) was “Active”, the Activity (Mus musculus [11]) was “Active” and the Activity (Mus musculus [12]) was “Active”. The Activity (Mus musculus [13]) was “Active”, the Activity (Mus musculus [14]) was “Active” and the Activity (Mus musculus [15]) was “Active”. For the same compound, the Activity (Mus musculus [16]) was “Active”, the Activity (Mus musculus [17]) was “Active” and the Activity (Mus musculus [18]) was “Active”. For the same compound, the Activity (Mus musculus [19]) was “Active”, the Activity (Mus musculus [20]) was “Active” and the Activity (Mus musculus [21]) was “inactive”. The Activity (Mus musculus [22]) was “Active”, the Activity (Mus musculus [23]) was “Active” and the Activity (Mus musculus [24]) was “Active”. The Activity (Mus musculus [25]) was “Active”, the Activity (Mus musculus [26]) was “Active” and the Activity (Mus musculus [27]) was “Active”. For the same compound, the Activity (Mus musculus [28]) was “inactive”, the Activity (Mus musculus [29]) was “Active” and the Activity (Mus musculus [30]) was “Active”. The Activity (Mus musculus [31]) was “Active”, the Activity (Mus musculus [32]) was “Active” and the Activity (Mus musculus [33]) was “Active”. The Activity (Mus musculus [34]) was “Active”, the Activity (Mus musculus [35]) was “Active” and the Activity (Mus musculus [36]) was “Active”. For the same compound, the Activity (Mus musculus [37]) was “Active” and the Activity (Mus musculus [38]) was “Active”.
